“Also recorded” adds a separate entry of the source. Where two headings read alike, the source gives them in different places.
Legend:
Central DA2-receptor = Central DA2-receptor (Rattus norvegicus, UniProt P61169); assay: Binding study, rat striatum, [3H]-spiperone; conditions: for Ki: rat striatum, [3H]-spiperone
Experimental: (§1) The affinity of the enantiomers for adrenergic and dopaminergic receptors was tested by binding studies in cerebral and peripheral tissues. The results are reported in Table 1 compared with CHF 1024 racemate in terms of inhibition constant (Ki) expressed as nanomolar concentration (nM).

β1-receptor [1] = biological target: T1, β1-receptor (Rattus norvegicus, UniProt P18090); assay: Binding study, rat lung, [3H]-(−)dihydroalprenolol
T1 construct: from tissue; host or cells: rat lung
Experimental: as §1

β2-receptor = biological target: T2, β2-receptor (Rattus norvegicus, UniProt P10608); assay: Binding study, rat lung, [3H]-(−)dihydroalprenolol
T2 construct: from tissue; host or cells: rat lung
Experimental: as §1

Central α2-receptor = assay: Binding study, rat cerebral cortex, [3H]-rauwolscine; conditions: for Ki: rat cerebral cortex, [3H]-rauwolscine
Experimental: as §1

Central α1-receptor = assay: Binding study, rat cerebral cortex, [3H]-prazosin
Experimental: as §1

[2] = biological target: Pre-synaptic DA2 receptor (Oryctolagus cuniculus, UniProt G1T1Q0); assay: Electrically stimulated rabbit rectococcigeus muscle, inhibition of contraction; conditions: read-out: effectiveness (α)
Experimental: (§2) The pharmacological activity of the enantiomers toward the same receptors was also tested in isolated tissue preparations. […] EC50 is the concentration inducing 50% of the maximal response and is expressed in mols/liter (M).

[3] = biological target: Pre-synaptic DA2 and α2 receptor; assay: Perfused rabbit ear artery, inhibition of electrically-induced contraction; conditions: for pD2 (−log EC50): EC50 in M
Experimental: as §2

β1-receptor [4] = biological target: β1-receptor (Cavia porcellus, UniProt H0W3H1); conditions: guinea pig, read-out: effectiveness (α)
β2-receptors = biological target: T3, β2-receptors (Cavia porcellus, UniProt Q8K4Z4); assay: Guinea-pig tracheal strips contracted with carbachol, relaxing effect
T3 construct: was also tested in isolated tissue preparations; from tissue; host or cells: guinea-pig tracheal strips

Central DA1 receptor = biological target: T4, Central DA1 receptor (Rattus norvegicus, UniProt P18901); assay: Binding study, rat striatum, [3H]-SCH23390
T4 construct: from tissue; host or cells: rat striatum
Experimental: as §1

[5] = tested on: conscious spontaneously hypertensive rats; assay: Arterial pressure and heart rate in conscious spontaneously hypertensive rats (telemetry); type: in vivo, rat; conditions: for recovery to basal values after treatment: after interruption of s.c. treatment; for effect on heart rate (words, summary): subcutaneous administration for 7 days
[6] = tested on: anaesthetized normotensive rats; assay: Arterial pressure in anaesthetized normotensive rats, intravenous infusion; type: in vivo, rat; conditions: intravenous infusion for 30 min
Experimental: In anaesthetized normotensive rats with recording of the arterial pressure, the effects induced by intravenous infusion for 30 min of CHF 1024 enantiomers compared with the racemate were evaluated. Control animals only received the vehicle. The results are reported in FIG. 1 as mean values and standard error.

[7] = Diffraction studies of crystal modifications; conditions: temperature dependent
[8] = tested on: plasma and tissular esterases; conditions: after administration through different routes (oral, transdermal); cited from earlier work
[9] = after oral administration of the racemate
α1 receptor = conditions: background statement; cited from earlier work
[10] = rat lung, [3H]-(−)dihydroalprenolol, read-out: Ki
[11] = EC50 in M, guinea-pig tracheal strips, read-out: pD2 (−log EC50) (converted)
[12] = rat striatum, [3H]-SCH23390, read-out: Ki
[13] = higher dose (6 nmol/kg/min) s.c., 7 days

T3 sequence (Q8K4Z4 whole entry): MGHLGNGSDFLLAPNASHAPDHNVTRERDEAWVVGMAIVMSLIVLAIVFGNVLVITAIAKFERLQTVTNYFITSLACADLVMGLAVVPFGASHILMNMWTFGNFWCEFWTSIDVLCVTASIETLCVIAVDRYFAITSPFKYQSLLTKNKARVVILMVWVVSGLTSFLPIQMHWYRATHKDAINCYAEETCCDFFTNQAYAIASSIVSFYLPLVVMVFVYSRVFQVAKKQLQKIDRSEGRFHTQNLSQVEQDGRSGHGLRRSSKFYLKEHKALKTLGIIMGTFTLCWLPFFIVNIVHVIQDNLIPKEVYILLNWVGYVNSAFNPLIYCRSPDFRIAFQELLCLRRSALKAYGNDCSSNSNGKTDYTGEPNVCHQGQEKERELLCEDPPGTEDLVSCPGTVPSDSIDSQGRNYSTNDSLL
Pre-synaptic DA2 receptor, sequence (G1T1Q0 1-443): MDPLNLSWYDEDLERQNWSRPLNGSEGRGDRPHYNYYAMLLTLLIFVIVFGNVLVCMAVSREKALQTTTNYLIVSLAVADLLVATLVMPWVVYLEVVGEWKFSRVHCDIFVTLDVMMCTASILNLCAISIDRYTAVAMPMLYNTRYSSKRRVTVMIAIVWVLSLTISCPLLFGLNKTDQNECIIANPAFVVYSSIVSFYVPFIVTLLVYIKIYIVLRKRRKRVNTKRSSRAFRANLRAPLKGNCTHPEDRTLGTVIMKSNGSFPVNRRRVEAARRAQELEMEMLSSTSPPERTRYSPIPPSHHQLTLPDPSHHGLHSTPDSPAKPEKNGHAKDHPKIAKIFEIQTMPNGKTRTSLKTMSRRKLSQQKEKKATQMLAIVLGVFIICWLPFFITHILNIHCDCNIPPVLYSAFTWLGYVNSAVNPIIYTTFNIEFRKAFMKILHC
T4 sequence (P18901 whole entry): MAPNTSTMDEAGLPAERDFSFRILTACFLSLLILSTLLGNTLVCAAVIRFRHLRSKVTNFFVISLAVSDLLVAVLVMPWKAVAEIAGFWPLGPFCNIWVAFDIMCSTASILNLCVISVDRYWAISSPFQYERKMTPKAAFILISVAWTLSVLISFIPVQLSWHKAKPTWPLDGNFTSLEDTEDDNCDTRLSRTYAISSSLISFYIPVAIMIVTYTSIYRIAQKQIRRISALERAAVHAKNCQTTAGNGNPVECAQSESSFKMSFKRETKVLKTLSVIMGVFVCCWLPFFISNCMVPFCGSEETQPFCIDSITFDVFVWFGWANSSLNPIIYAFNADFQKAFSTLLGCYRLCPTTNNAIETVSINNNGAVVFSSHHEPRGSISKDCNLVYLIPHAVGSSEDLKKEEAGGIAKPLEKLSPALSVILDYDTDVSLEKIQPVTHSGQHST
Central DA2-receptor, sequence (P61169 whole entry): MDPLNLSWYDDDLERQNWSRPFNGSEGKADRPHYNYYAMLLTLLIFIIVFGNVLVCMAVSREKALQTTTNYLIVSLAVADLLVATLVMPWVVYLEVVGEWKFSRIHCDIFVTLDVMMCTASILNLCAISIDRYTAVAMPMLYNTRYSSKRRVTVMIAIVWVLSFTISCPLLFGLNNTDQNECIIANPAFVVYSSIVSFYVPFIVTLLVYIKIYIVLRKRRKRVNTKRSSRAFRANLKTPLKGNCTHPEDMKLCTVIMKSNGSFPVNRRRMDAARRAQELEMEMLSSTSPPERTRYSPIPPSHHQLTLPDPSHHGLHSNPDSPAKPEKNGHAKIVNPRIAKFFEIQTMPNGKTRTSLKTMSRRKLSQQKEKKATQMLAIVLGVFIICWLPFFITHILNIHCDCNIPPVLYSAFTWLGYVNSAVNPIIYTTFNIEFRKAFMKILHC
T1 sequence (P18090 whole entry): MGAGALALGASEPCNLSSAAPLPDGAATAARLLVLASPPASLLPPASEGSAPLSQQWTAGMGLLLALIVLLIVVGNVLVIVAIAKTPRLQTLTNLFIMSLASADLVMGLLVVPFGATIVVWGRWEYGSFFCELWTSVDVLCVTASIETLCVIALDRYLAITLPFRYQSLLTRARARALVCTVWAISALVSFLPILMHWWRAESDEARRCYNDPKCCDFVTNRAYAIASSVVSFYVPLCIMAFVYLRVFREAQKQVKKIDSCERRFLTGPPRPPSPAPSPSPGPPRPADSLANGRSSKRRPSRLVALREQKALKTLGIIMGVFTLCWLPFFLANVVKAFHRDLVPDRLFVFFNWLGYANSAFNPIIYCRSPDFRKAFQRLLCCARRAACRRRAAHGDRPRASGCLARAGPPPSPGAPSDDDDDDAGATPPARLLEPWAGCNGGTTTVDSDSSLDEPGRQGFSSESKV
T2 sequence (P10608 whole entry): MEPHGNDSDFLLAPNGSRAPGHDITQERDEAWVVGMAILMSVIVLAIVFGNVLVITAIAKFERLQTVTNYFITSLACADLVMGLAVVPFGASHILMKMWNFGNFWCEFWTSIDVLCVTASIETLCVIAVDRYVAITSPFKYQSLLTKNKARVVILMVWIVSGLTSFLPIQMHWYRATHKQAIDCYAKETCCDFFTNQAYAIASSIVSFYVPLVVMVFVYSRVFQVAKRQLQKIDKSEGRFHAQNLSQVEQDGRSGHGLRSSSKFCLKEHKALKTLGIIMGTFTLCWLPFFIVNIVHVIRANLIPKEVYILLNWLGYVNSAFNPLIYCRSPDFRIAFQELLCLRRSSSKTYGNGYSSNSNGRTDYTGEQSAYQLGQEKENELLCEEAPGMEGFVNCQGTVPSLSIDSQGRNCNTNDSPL
β1-receptor (Cavia porcellus, UniProt H0W3H1), sequence (H0W3H1 1-470): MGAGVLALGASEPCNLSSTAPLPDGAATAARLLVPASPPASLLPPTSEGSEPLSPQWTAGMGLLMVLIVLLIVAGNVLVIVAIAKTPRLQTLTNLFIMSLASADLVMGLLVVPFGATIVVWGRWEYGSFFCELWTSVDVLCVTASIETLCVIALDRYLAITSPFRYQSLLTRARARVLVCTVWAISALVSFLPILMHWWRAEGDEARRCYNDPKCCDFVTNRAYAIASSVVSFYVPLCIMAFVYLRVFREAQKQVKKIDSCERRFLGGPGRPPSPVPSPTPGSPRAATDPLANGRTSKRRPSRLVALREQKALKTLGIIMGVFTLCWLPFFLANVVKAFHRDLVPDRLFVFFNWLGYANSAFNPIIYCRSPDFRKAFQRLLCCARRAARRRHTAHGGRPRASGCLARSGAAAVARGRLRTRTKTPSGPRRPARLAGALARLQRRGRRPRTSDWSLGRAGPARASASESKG

SMILES	Ki (Central DA2-receptor)	Ki (β1-receptor [1]; [10])	Ki (β2-receptor; [10])	Ki (Central α2-receptor)	Ki (Central α1-receptor)	Emax [2]	pD2 (−log EC50) ([3]; rabbit ear artery)	effectiveness (α) ([3]; rabbit ear artery)	Emax (β1-receptor [4])	EC50 (β2-receptors; [11])	effectiveness (α) (β2-receptors; guinea-pig tracheal strips)	Ki (Central DA1 receptor; [12])	effect on heart rate ([5]; 3 nmol/kg/min s.c., 7 days)	recovery to basal values after treatment [5]	effect on heart rate (words, summary) [5]	effect on arterial pressure (hypotensive response) [6]	structural rearrangement of the crystal form (polymorphic stability) [7]	further results
CN[C@H]1CCc2c(ccc(O)c2O)C1 [CHF 1870, (−)-(S)-5,6-dihydroxy-2-methylaminotetralin]	120 nM	40000 nM	1000 nM	130 nM	15000 nM	91%	9.6	0.92	91%	398 nM	0.97	6800 nM	greater reduction of heart rate compared with the racemate	took place more slowly	more marked reduction of heart rate than an equivalent dose of the racemate	dose-dependent reduction of the arterial pressure which was maintained even after infusion was discontinued; also recorded: hypotensive response slightly lower but remarkably longer-lasting than that of the racemate	–	affinity for DA2-dopaminergic receptors relative to the dextro enantiomer (CHF 1869) (Central DA2-receptor; from Table 1): about 20 times; affinity for α2-adrenergic receptors relative to the dextro enantiomer (CHF 1869) (Central α2-receptor; from Table 1): ~10 times; potency relative to its optical antipode ([3]; rabbit ear artery): at least 10000 times; reduction of arterial pressure ([5]; 3 nmol/kg/min s.c. osmotic minipump, 7 days): 20-30 mmHg; reduction of heart rate [5, 13]: about 70 beats/minute
CN[C@H]1CCc2c(ccc(OC(=O)C(C)C)c2OC(=O)C(C)C)C1.Cl [CHF 1810, (−)-(S)-5,6-diisobutyroyloxy-2-methylaminotetralin hydrochloride]	–	–	–	–	–	–	–	–	–	–	–	–	–	–	–	–	does not show any structural rearrangement below 100 °C	–
CNC1CCc2c(ccc(OC(=O)C(C)C)c2OC(=O)C(C)C)C1 (racemic) [CHF 1035, (±)-(R,S)-5,6-Diisobutyroyloxy-2-methylaminotetralin]	–	–	–	–	–	–	–	–	–	–	–	–	–	–	–	–	form I shows two remarkable structural rearrangements	conversion into the desesterified form CHF 1024 [8]: quickly and completely converted; AUC of the dextro form relative to that of the laevo form [9]: about one half
CN[C@@H]1CCc2c(ccc(O)c2O)C1 [CHF 1869]	2400 nM	90000 nM	1400 nM	1600 nM	21000 nM	87%	<5.0	0.92	83%	251 nM	0.97	7400 nM	no reduction of heart rate	faster than with CHF 1870	no reduction of heart rate	rapid onset and disappearance of the hypotensive effects; also recorded: more rapid but less lasting response	–	activity on α2 and DA2 receptors ([3]; isolated tissue preparations): poor activity on α2 and DA2 receptors; hypotensive effect ([5]; 3 nmol/kg/min s.c., 7 days): slight, although noticeable, hypotensive effect; effect on heart rate [5, 13]: no reduction of heart rate is observed, which even increases during the first 2-3 days of treatment; hypotensive response [5, 13]: comparable to that caused by its optical antipode
CNC1CCc2c(ccc(O)c2O)C1 (racemic) [CHF 1024, (±)-5,6-dihydroxy-2-methylaminotetralin, reference compound]	–	–	–	260 nM	16000 nM	96%	9.0	0.94	81%	–	0.96	–	–	–	–	–	–	agonist activity on α1 receptor (α1 receptor): negligible; Ki (Central DA2-receptor; read-out: Ki): 290 nM; Ki (β1-receptor [1]): 45000 nM; Ki (β2-receptor): 1500 nM; EC50 (β2-receptors): 251 nM; Ki (Central DA1 receptor): 13000 nM
